Patent US9365491B2, “Inhibitors of cognitive decline” (COGNITION THERAPEUTICS, INC., priority 2009, dated 2016)
“Also recorded” adds a separate entry of the source.

Legend:
[1] = test system: Abeta oligomer effects on membrane trafficking in mature primary neurons; assay: Primary neuron-based functional screening assay (membrane trafficking/exocytosis, Example DD); assay type: cell-based, rat; settings: for activity in blocking the effects of Abeta oligomers on membrane trafficking: compound added to neurons before oligomers
Text: Primary rat neurons grown for at least 3 weeks in vitro were chosen as the basis for this screening assay. […] More complex systems such as acute or organotypic brain slices are very useful but not amenable to high throughput screening. […] For this reason, primary neuronal cultures were chosen because of their ability to be used in high throughput screens and fidelity to what occurs in vivo.
(Scale bar=20 microns in FIG. 1A). […] (FIG. 1B).
The MTT assay can be used as a measure of toxicity in cultures. Yellow tetrazolium salts were endocytosed by cells and reduced to insoluble purple formazan in the endosomal pathway. The level of purple formazan was a reflection of the number of actively metabolizing cells in culture, and reduction in the amount of formazan was taken as a measure of cell death or metabolic toxicity in culture.
The exocytosis assay was adapted for use with mature primary neuronal cultures grown for 3 weeks in vitro.
Compounds were added to neurons first, then oligomers were added.
Data were the average of 3 experiments. Scale bar=20 micron in FIG. 2D.

[2] = test system: Abeta assemblies isolated from AD patients or normal individuals; assay: Membrane trafficking assay with patient-derived Abeta assemblies (Example FF); assay type: cell-based; settings: FIG. 4
Experimental: Abeta assemblies were isolated from patients with Alzheimer's Disease (AD) or from normal patients. The Abeta assemblies were tested for their ability to modulate membrane trafficking. […] (FIG. 4). […] Compound Example 2 has no effect on Abeta assemblies isolated from Age-matched normal individuals. (FIG. 4). […] (FIG. 4).

[3] = test system: Abeta oligomer-mediated memory deficits; assay: Fear conditioning assay (Example EE); assay type: in vivo, mice
Experimental: Compound Example 2 was tested in an animal model of a memory-dependent behavioral task known as fear conditioning. The study protocol was designed based on published protocols (See e.g. Puzzo D, Privitera L, Leznik E, Fà M, Staniszewski A, Palmeri A, Arancio O. Picomolar amyloid-beta positively modulates synaptic plasticity and memory in hippocampus. J Neurosci. 2008 Dec. 31; 28(53)14537-45.). The formation of contextual memories is dependent upon the integrity of medial temporal lobe structures such as the hippocampus. In this assay mice were trained to remember that a particular salient context (conditioned stimulus; CS) is associated with an aversive event, in this case a mild foot shock (the unconditioned stimulus, US). Animals that show good learning will express an increase in freezing behavior when placed back into the same context. This freezing is absent in a novel context. Increased freezing in the context indicates strong hippocampal-dependent memory formation in animals. Memory tested in Fear Conditioning is sensitive to elevations of soluble Aβ. […] The fear condition model for memory was performed as described herein.

[4] = test system: Abeta oligomer-induced acceleration of exocytosis in primary neurons; assay: Exocytosis assay/MTT assay (Example AA); assay type: cell-based, rat; settings: Primary neuron
Experimental: Primary neurons from E18 Sprague-Dawley rat embryos are plated at optimized concentrations in 384 well plates in NB media (Invitrogen). Neurons are maintained in cultures for 3 weeks, with twice weekly feeding of NB media with N2 supplement (Invitrogen). A test compound is added to cells, followed by addition of Vehicle or Abeta oligomer preparations (1.5 μM), and incubated for 1 to 24 hr at 37° C. in 5% CO2. MTT reagent (3-(4,5-dimethylthizaol-2yl)-2,5diphenyl tetrazolium bromide) (Roche Molecular Biochemicals) is reconstituted in phosphate buffered saline to 5 mg/mL. 10 μL of MTT labeling reagent is added to each well and incubated at 37° C. for 1 h, then imaged.
Each assay plate is formatted so that compounds are tested with and without Abeta on each plate. […] Statistical performance of the screening plate layout are assessed, screening will be initiated if the current performance is maintained. […]
Optimal cell density is determined based on cellular response to Abeta oligomers using the exocytosis assay as a readout, and immunohistochemical analysis of the relative proportion of glia to neurons in the cultures. Cultures are monitored on a weekly basis with immunohistochemistry and image processing-based quantification to monitor the percentage of the cultures that are neurons vs. glia (Glial cells). […]

[5] = Pharmacokinetic studies (Example CC), plasma; assay type: in vivo; settings: rat, iv, rats, injected intravenously at 1 mg/Kg
Experimental: PK studies are performed at CEREP Inc of Redmond Wash., according to their standard protocols: The plasma samples were processed using acetonitrile precipitation and analyzed by HPLC-MS or HPLC-MS/MS. Peak areas were recorded, and the concentrations of the test compound in the unknown plasma samples were determined using the respective calibration curve. The reportable linear range of the assay was determined, along with the lower limit of quantitation (LLQ).
Pharmacokinetic studies were performed according to the following protocols: The plasma samples were processed using acetonitrile precipitation and analyzed by HPLC-MS or HPLC-MS/MS. Peak areas were recorded, and the concentrations of the test compound in the unknown plasma samples were determined using the respective calibration curve. The reportable linear range of the assay was determined, along with the lower limit of quantitation (LLQ).

Abeta 1-42 Oligomers = target: T1, Abeta 1-42 Oligomers (Homo sapiens, UniProt P05067); assay: Binding assay (Example BB): Abeta oligomer binding to neurons, image processing; settings: imaging processing algorithm
T1 construct: Human amyloid peptide 1-42 is obtained from California Peptide; purchased California Peptide
Experimental: Each test compound was added to a plate followed by an addition of one or more of Abeta 1-42 Oligomers. The plates were fixed with 3.7% paraformaldehyde in phosphate buffered saline (PBS) for 15 min. The plate was then washed 3× with PBS for 5 min each. The plates were blocked at room temperature for 1 hour in 5% goat serum and 0.5% Triton X-100 (CAS number: 9002-93-1) in PBS. Primary antibodies (anti-MAP 2 polyclonal, Millipore #AB5622 and anti-Beta Amyloid 6E10 monoclonal, Convance #SIG-39300) were diluted 1:1000 in 5% goat serum with PBS. Primary antibodies were incubated either overnight at 4° C. or 1 hour at RT. The plate was then washed 3× with PBS for 5 min each. Secondary antibodies (Alex Flor 488 polyclonal, Invitrogen #A11008 and Alexa Flor 647 monoclonal, Invitrogen #A21235) were diluted 1:1000 in 5% goat serum with PBS. Secondary antibodies were incubated at RT for 1 hr. The plates were washed once with PBS. […]
Human amyloid peptide 1-42 is obtained from California Peptide, with lot-choice contingent upon quality control analysis. […] Toxicity is monitored in each image-based assay via quantification of nuclear morphology visualized with the DNA binding dye DAPI (Invitrogen). […]
Images were captured and analyzed with the Cellomics VTI automated microscope platform, using the Neuronal Profiling algorithm. […]

T1 sequence (P05067 672-713): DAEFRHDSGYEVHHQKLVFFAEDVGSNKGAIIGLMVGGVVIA

In the case of `C[C@]12N[C@H](Cc3ccccc31)c1ccccc12` [MK-801, reference compound], the “activity in blocking the effects of Abeta oligomers on membrane trafficking” value (“activity in blocking the effects” below) [1] is reported as “none were active”.
In the case of `COc1cc(CCC(C)NCc2ccc(C(F)(F)F)cc2)ccc1O` (stereo not drawn) [Compound Example 2, 4-(3-(4-(trifluoromethyl)benzylamino)butyl)-2-methoxyphenol], the EC50 ([1]; Rattus norvegicus, Primary neuron, 504 h, FIG. 2B, primary neurons 3 weeks in vitro, read-out: EC50 for inhibition of oligomer effects on membrane trafficking) is reported as 7 µM, the “activity in blocking the effects” value [1] is reported as “inhibits oligomer effects on membrane trafficking; also recorded: effective” and the “effect on trafficking effects of AD-brain derived Abeta assemblies” value ([2]; IMW (10-100 KDa) assemblies from AD patients) is reported as “significantly blocked”. For the same molecule, the “effect on Abeta assemblies isolated from Age-matched normal individuals” value ([2]; IMW assemblies from normal individuals) was “no effect”, the “effect on Abeta oligomer-mediated memory deficits” value ([3]; 2 pmol dose, given prior to Abeta (200 nM), contextual fear conditioning, FIG. 3 bar d) was “completely blocked” and the “block of oligomer effects on memory across doses” value ([3]; administered prior to Abeta oligomer administration) was “blocked oligomer effects on memory in a dose-dependent manner”. For the same molecule, the adverse behavioral changes ([3]; any dose) was “No adverse behavioral changes were observed” and the “effect of compound alone on memory” value ([3]; no Abeta, data not shown) was “No effect”.
For `O[C@H]1[C@H](O)[C@@H](O)[C@H](O)[C@@H](O)[C@@H]1O` [scyllo-inositol, reference compound], the “activity in blocking the effects” value [1] was “none were active”.
For `C[N+](C)(C)CCCCCC[N+](C)(C)C` [hexamethonium bromide, reference compound], the “activity in blocking the effects” value [1] was “none were active”.
In the case of `CC12CC3CC(C)(C1)CC(N)(C3)C2` [Memantine, memantine, reference compound], the inhibition at 28 µM ([4]; Rattus norvegicus, 28 μM memantine, control on each plate, read-out: inhibition of oligomer effects) is reported as 50%.
For `COc1cc(CCC(C)NCc2ccc(Cl)cc2)ccc1O` (stereo not drawn) [Compound Example 1, 4-(3-(4-chlorobenzylamino)butyl)-2-methoxyphenol], the half-life [5] was 46 min, the EC50 ([4]; MTT assay, primary rat neurons, Abeta oligomers 1.5 μM, read-out: EC50 for block of Abeta oligomer-induced acceleration of exocytosis) was 10 µM and the “partial block of binding of the Abeta oligomer ligand to neurons” value (Abeta 1-42 Oligomers) was 24%.
